pEC50: −log10 of the molar value.

As a reminder, the pEC50 is −log10 of the EC50, conventionally taken in molar units.

The test system of this test is 32D-mpl cells. The test can be described thus: proliferation of 32D-mpl cells. The format is cell-based. As to the method: The compound of Example 1, promoted the proliferation of 32D-mpl cells at a concentration of 0.03 to 30 uM.

On to `CC1=NN(c2ccc(C)c(C)c2)C(=O)C1=CNc1cccc(-c2cccc(C(=O)O)c2)c1O` [Example 1, 3′-{[1-(3.4-Dimethylphenyl)-3-methyl-5-oxo-1,5-dihydropyrazol-4-ylidenemethyl]amino}-2′-hydroxybiphenyl-3-carboxylic Acid], for which the pEC50 was 6.17. Moreover, the “% TPOmax” value (relative to TPO maximum) amounted to 85%.

(Values after US6875786B2, “Thrombopoietin mimetics” (SmithKline Beecham Corporation, priority 2001, dated 2005).)
